Results on three compounds are retold here after paper PMC6437697 (Journal of Medicinal Chemistry, 2019).

Structures are written as SMILES.

Assay in all cases: KINOMEscan
What all share (assay type): binding
Holding throughout (conditions): read-out: % control activity remaining

Assay [1] deals with T1, KIT(L576P) (Homo sapiens, UniProt P10721, L576P).
T1 construct: purchased Eurofins DiscoverX KINOMEscan

Assay [2] deals with T2, SGK (Homo sapiens, UniProt O00141).
T2 construct: purchased Eurofins DiscoverX KINOMEscan
T2 sequence (O00141 1-431): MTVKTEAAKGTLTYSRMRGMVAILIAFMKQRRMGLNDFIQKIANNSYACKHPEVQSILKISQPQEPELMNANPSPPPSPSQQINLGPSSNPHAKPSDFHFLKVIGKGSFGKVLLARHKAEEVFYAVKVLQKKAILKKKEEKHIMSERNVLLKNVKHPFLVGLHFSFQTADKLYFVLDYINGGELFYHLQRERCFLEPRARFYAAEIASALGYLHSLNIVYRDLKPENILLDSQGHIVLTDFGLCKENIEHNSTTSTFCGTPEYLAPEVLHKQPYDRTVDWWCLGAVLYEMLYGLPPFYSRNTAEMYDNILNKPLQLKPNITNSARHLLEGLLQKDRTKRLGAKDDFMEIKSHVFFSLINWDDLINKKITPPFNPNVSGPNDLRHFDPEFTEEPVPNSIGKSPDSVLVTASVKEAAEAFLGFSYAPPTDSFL

In assay [3] the target is T3, IKK-alpha (Homo sapiens, UniProt O15111).
T3 construct: purchased Eurofins DiscoverX KINOMEscan
T3 sequence (O15111 1-745): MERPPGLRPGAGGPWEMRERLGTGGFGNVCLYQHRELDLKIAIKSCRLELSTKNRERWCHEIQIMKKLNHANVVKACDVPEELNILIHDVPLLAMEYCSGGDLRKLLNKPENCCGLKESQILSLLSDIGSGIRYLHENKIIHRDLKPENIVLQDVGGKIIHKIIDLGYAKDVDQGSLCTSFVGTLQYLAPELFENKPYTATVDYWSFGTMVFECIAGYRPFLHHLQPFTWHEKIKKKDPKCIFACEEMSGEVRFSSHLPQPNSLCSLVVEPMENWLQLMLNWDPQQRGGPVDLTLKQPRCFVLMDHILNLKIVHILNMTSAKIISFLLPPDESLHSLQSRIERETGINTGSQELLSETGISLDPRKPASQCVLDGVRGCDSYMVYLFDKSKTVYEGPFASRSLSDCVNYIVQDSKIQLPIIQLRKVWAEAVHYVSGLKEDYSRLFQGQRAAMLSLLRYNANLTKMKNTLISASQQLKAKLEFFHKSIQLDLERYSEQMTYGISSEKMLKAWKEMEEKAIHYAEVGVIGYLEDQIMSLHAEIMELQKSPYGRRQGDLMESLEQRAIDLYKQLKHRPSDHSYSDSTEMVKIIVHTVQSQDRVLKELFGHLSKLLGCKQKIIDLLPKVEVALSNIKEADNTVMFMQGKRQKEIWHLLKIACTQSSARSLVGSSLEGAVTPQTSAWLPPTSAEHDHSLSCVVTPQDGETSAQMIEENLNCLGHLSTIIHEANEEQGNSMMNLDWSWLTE

In assay [4] the target is T4, WNK3 (Homo sapiens, UniProt Q9BYP7).
T4 construct: purchased Eurofins DiscoverX KINOMEscan

Assay [5] concerns the target T5, LZK (Homo sapiens, UniProt O43283).
T5 construct: purchased Eurofins DiscoverX KINOMEscan
T5 sequence (O43283 1-966): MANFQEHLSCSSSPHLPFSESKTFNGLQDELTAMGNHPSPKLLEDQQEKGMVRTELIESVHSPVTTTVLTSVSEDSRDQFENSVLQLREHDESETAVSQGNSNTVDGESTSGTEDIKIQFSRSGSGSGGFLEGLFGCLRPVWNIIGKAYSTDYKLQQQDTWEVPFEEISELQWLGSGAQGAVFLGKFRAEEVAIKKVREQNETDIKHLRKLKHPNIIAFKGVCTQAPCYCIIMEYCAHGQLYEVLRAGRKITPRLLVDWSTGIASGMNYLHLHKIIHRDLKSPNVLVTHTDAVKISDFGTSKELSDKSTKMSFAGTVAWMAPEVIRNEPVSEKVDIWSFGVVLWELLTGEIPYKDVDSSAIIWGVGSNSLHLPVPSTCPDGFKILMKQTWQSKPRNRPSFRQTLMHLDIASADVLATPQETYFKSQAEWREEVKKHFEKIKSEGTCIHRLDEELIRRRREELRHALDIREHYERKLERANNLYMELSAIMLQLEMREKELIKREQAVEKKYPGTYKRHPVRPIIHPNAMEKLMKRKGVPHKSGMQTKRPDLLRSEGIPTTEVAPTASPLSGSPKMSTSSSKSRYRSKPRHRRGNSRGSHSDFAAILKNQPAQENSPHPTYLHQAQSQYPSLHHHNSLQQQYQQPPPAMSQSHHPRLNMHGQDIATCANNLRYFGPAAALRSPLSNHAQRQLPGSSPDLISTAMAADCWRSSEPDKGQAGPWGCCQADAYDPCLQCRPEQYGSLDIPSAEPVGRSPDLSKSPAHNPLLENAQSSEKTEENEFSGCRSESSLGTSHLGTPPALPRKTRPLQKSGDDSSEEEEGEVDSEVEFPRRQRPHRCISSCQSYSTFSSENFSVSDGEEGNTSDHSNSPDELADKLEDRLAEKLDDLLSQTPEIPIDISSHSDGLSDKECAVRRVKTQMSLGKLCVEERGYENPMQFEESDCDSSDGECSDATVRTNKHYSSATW

Assay [6] concerns the target T6, IKK-epsilon (Homo sapiens, UniProt Q14164).
T6 construct: purchased Eurofins DiscoverX KINOMEscan
T6 sequence (Q14164 1-716): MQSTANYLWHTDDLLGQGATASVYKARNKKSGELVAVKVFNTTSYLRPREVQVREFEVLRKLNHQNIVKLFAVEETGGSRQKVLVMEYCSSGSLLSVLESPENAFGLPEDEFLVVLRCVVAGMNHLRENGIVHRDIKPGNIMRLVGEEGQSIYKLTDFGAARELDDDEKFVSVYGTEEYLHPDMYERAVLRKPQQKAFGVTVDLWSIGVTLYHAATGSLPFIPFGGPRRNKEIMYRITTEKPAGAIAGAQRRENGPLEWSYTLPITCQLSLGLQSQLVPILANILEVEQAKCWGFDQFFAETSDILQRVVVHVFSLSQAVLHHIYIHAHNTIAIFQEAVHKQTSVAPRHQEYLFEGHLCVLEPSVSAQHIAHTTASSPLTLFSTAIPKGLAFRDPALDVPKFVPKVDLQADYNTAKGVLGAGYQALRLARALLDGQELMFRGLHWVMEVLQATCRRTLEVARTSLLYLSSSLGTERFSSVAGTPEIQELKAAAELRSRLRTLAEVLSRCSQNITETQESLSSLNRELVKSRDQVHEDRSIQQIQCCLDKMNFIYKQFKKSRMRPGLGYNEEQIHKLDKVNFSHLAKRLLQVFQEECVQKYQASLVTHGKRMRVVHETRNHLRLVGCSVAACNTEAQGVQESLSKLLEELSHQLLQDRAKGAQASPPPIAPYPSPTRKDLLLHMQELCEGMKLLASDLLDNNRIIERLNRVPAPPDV

T1 sequence (P10721 26-976 L576P): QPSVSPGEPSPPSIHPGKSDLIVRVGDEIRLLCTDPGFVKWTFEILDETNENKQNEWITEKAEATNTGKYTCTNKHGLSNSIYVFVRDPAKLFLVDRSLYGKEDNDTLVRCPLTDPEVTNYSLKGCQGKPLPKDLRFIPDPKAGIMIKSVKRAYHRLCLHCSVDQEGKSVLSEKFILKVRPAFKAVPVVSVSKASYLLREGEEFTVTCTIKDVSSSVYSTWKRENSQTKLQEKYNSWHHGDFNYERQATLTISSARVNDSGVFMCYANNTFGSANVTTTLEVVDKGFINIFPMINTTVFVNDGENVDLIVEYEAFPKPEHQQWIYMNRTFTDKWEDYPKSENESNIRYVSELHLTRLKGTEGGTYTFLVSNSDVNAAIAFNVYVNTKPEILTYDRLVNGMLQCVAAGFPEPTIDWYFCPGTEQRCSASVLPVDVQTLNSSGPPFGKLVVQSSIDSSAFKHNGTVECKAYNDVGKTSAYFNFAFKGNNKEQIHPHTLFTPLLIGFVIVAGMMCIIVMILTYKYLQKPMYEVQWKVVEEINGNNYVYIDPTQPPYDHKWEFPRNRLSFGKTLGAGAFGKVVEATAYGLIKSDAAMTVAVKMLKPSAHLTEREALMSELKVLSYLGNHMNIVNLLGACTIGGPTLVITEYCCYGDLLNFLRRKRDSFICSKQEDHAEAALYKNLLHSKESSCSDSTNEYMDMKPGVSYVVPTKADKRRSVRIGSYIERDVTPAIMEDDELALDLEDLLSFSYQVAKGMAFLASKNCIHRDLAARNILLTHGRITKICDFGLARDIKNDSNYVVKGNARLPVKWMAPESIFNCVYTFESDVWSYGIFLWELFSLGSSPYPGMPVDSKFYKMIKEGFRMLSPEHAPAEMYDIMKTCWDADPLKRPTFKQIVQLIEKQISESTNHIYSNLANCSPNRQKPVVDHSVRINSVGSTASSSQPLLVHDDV
T4 sequence (Q9BYP7 whole entry): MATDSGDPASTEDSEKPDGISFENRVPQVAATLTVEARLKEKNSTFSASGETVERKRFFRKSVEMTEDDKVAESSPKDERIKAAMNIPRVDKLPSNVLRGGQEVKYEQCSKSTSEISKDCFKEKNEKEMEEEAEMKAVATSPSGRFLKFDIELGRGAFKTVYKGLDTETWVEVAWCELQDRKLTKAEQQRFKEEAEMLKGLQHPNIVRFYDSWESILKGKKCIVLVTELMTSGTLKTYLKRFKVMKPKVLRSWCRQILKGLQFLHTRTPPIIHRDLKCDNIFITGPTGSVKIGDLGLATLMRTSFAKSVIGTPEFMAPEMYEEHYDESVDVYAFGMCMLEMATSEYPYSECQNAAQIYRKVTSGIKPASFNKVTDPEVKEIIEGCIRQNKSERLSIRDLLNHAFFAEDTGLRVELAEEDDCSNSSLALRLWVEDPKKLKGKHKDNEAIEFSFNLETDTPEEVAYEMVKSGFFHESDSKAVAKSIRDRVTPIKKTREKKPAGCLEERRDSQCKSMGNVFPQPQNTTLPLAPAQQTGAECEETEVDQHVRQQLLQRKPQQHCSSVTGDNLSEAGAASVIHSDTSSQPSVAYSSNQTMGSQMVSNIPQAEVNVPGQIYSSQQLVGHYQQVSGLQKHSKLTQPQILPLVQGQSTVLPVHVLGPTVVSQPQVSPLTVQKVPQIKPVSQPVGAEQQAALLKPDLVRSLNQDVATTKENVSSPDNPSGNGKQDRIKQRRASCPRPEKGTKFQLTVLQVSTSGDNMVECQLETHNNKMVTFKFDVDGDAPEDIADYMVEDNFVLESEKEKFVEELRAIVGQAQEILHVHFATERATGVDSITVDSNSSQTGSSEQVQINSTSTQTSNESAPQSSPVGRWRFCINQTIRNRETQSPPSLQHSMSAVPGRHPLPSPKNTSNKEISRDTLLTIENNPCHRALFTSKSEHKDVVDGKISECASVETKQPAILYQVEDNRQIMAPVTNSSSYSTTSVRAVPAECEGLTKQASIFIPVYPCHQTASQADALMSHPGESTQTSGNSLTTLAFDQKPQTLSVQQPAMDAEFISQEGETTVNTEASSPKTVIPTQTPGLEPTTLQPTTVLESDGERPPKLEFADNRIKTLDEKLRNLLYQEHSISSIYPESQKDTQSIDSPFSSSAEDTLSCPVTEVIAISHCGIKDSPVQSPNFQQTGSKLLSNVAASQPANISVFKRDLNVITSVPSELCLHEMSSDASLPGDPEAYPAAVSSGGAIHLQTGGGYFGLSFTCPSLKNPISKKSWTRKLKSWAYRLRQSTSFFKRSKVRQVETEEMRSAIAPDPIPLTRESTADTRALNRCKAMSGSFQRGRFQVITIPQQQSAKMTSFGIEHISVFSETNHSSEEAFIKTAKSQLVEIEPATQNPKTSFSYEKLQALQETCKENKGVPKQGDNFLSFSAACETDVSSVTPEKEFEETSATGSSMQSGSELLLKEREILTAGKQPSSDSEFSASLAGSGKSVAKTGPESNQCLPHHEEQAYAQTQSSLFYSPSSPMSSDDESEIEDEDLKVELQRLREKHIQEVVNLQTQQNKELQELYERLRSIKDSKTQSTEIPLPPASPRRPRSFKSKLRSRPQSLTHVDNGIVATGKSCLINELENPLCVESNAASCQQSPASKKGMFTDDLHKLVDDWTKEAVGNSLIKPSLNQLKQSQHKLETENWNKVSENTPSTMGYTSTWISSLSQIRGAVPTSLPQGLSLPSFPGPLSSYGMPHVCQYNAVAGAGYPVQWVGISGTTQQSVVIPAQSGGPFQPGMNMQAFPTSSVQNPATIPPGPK

Consider `Clc1cc(NCC2CC2)c2ncc(-c3ccc4[nH]ncc4c3)n2n1` [compound 2, 6-Chloro-N-(cyclopropylmethyl)-3-(1H-indazol-5-yl)imidazo[1,2-b]pyridazin-8-amine], for which the remaining binding at 1 µM was determined as 1.2% in assay [1]; 91% in assay [2]; 76% in assay [3]; 96% in assay [4]; 100% in assay [5]; 94% in assay [6].

For the compound `O=C(CN1CCOCC1)N[C@H]1CC[C@H](Nc2cc(Cl)nn3c(-c4ccc5[nH]ncc5c4)cnc23)CC1` [compound 26], the remaining binding at 1 µM in assay [1] is 0%; in assay [2], 94%; in assay [3], 100%; in assay [4], 100%; in assay [5], 100%; in assay [6] it was 100%.

Take `CN1CCC(CNc2cc(Cl)nn3c(-c4cc5nc(Nc6ccccc6)[nH]c5cc4F)cnc23)CC1` [compound 31, 6-Chloro-3-(6-fluoro-2-(phenylamino)-1H-benzo[d]imidazol-5-yl)-N-((1-methylpiperidin-4-yl)methyl)imidazo[1,2-b]pyridazin-8-amine]: the remaining binding at 1 µM in assay [1] is 61%; in assay [2], 76%; in assay [3], 90%; in assay [4], 82%; in assay [5] it was 98%; in assay [6], 78%.
